The target in test [1] is T1, Tubulin (Homo sapiens) (UniProt P68371+Q9H4B7+P0DPH7+P68366+Q13509+Q71U36+P04350+Q3ZCM7+P07437+P68363+Q9BQE3+Q6PEY2+Q13885+Q9BVA1+Q9BUF5). The test is described as follows: Disruption of microtubule network in human A549 cells assessed as compressed and fragmented nuclei at […] after 16 hrs by Hoechst staining based immunofluorescence microscopic method. The format is cell-based.

Test [2] addresses Vascular endothelial growth factor receptor 2 (Homo sapiens) (UniProt P35968). The experiment in a line: Inhibition of VEGFR2 internalization in human A549 cells at […] after 24 hrs by immunofluorescence assay. Format: cell-based.
Test [3] shares this target. The test is described as follows: Inhibition of VEGFR2 internalization in HMEC1 cells assessed as total VEGFR2 level at 6 uM after 24 hrs by flow cytometry (reference value: 100%). The format is cell-based. Set-up: scale not given: the % may be the effect or the level left.
Test [4] shares this target. The experiment in a line: Inhibition of VEGFR2 internalization in HMEC1 cells at 6 uM after 24 hrs by immunofluorescence assay. Format: cell-based.
For test [5] the target is unchanged. The test is described as follows: Inhibition of VEGFR2 internalization in HMEC1 cells assessed as membrane VEGFR2 level at 6 uM after 24 hrs by flow cytometry (reference value: 100%). Format: cell-based. Set-up: scale not given: the % may be the effect or the level left. (Flow cytometry measures light scatter and fluorescence of single cells or particles in a stream.)

For test [6] the target is unchanged. The experiment in a line: Inhibition of VEGFR2 internalization in HMEC1 cells at 12 uM after 24 hrs by immunofluorescence assay. Format: cell-based.
Test [7] shares this target. The experiment in a line: Inhibition of VEGFR2 internalization in human A549 cells at 28 uM after 24 hrs by immunofluorescence assay. The format is cell-based.
Test [8] addresses T1, Tubulin (Homo sapiens). The test is described as follows: Disruption of microtubule network in human A549 cells assessed as compressed and fragmented nuclei at 28 uM after 16 hrs by Hoechst staining based immunofluorescence microscopic method. Format: cell-based.
Test [9] concerns the target Vascular endothelial growth factor receptor 2 (Homo sapiens) (UniProt P35968). The test is described as follows: Inhibition of VEGFR2 internalization in HMEC1 cells assessed as total VEGFR2 level at 12 uM after 24 hrs by flow cytometry (reference value: 100%). The format is cell-based. Set-up: scale not given: the % may be the effect or the level left.
Test [10] has the same target. The experiment in a line: Inhibition of VEGFR2 internalization in HMEC1 cells assessed as membrane VEGFR2 level at 12 uM after 24 hrs by flow cytometry (reference value: 100%). Format: cell-based. Set-up: scale not given: the % may be the effect or the level left.
The target is the same in test [11]. The test is described as follows: Inhibition of VEGFR2 internalization in human A549 cells at 18 uM after 24 hrs by immunofluorescence assay. Format: cell-based.
The target is the same in test [12]. The test is described as follows: Inhibition of VEGFR2 internalization in HMEC1 cells assessed as total VEGFR2 level at 8 uM after 24 hrs by flow cytometry (reference value: 100%). Format: cell-based. Also on record: scale not given: the % may be the effect or the level left.
Test [13] has the same target. The test is described as follows: Inhibition of VEGFR2 internalization in HMEC1 cells at 8 uM after 24 hrs by immunofluorescence assay. Format: cell-based.
The target in test [14] is T1, Tubulin (Homo sapiens). The experiment in a line: Disruption of microtubule network in human A549 cells assessed as compressed and fragmented nuclei at 18 uM after 16 hrs by Hoechst staining based immunofluorescence microscopic method. Format: cell-based.
Test [15] deals with Vascular endothelial growth factor receptor 2 (Homo sapiens) (UniProt P35968). The test is described as follows: Inhibition of VEGFR2 internalization in HMEC1 cells assessed as membrane VEGFR2 level at 8 uM after 24 hrs by flow cytometry (reference value: 100%). The format is cell-based. Set-up: scale not given: the % may be the effect or the level left.
For test [16] the target is unchanged. The experiment in a line: Inhibition of VEGFR2 internalization in HMEC1 cells assessed as total VEGFR2 level at […] after 24 hrs by flow cytometry (reference value: 100%). The format is cell-based. Also on record: scale not given: the % may be the effect or the level left.
The target is the same in test [17]. The experiment in a line: Inhibition of VEGFR2 internalization in HMEC1 cells assessed as membrane VEGFR2 level at […] after 24 hrs by flow cytometry (reference value: 100%). Format: cell-based. Also on record: scale not given: the % may be the effect or the level left.
The subject of another test is HL-60. The test is described as follows: Antiproliferative activity against human HL60 cells by MTT assay. The format is functional, cell-based. (In general: Tetrazolium assays rely on reduction of a dye to a coloured formazan, in cell work by metabolically active cells.)
A further test relates to HMEC-1. The test is described as follows: Antiangiogenic activity against HMEC1 cells after 20 hrs by tube formation assay. The settings on record: Homo sapiens, HMEC-1, 20 h.
In test [18] the test system is A549. The experiment in a line: Induction of apoptosis in human A549 cells at 100 uM after 20 to 24 hrs by Annexin V-FITC/propidium iodide staining based flow cytometry (reference value: 16%). The format is functional.
Test [19] deals with A549. The experiment in a line: Induction of apoptosis in human A549 cells at 50 uM after 20 to 24 hrs by Annexin V-FITC/propidium iodide staining based flow cytometry (reference value: 16%). Format: functional.
Test [20] relates to A549. The experiment in a line: Cell cycle arrest in human A549 cells assessed as accumulation at S phase at […] after 24 hrs by propidium iodide staining based flow cytometry (reference value: 28 +/- 0.6%). Format: functional.
In test [21] the test system is A549. The experiment in a line: Cell cycle arrest in human A549 cells assessed as accumulation at subG0 phase at […] after 24 hrs by propidium iodide staining based flow cytometry (reference value: 2 +/- 0.8%). The format is functional.
Test [22] has as its system A549. The experiment in a line: Cell cycle arrest in human A549 cells assessed as accumulation at G2/M phase at […] after 24 hrs by propidium iodide staining based flow cytometry (reference value: 10 +/- 0.8%). Format: functional.
Test [23] relates to A549. The experiment in a line: Cell cycle arrest in human A549 cells assessed as accumulation at G0/G1 phase at […] after 24 hrs by propidium iodide staining based flow cytometry (reference value: 60 +/- 1%). Format: functional.
Test [24] deals with Vascular endothelial growth factor receptor 2 (Homo sapiens) (UniProt P35968). The experiment in a line: Inhibition of VEGFR2 internalization in HMEC1 cells assessed as total VEGFR2 level at 120 uM after 24 hrs by flow cytometry (reference value: 100%). Set-up: scale not given: the % may be the effect or the level left. Format: cell-based.
Test [25] shares this target. The experiment in a line: Inhibition of VEGFR2 internalization in HMEC1 cells at 120 uM after 24 hrs by immunofluorescence assay. Format: cell-based.
Test [26] shares this target. The experiment in a line: Inhibition of VEGFR2 internalization in human A549 cells at 48 uM after 24 hrs by immunofluorescence assay. Format: cell-based.
For test [27] the target is unchanged. The experiment in a line: Inhibition of VEGFR2 internalization in HMEC1 cells assessed as membrane VEGFR2 level at 120 uM after 24 hrs by flow cytometry (reference value: 100%). The format is cell-based. Set-up: scale not given: the % may be the effect or the level left.
Test [28] has the same target. The experiment in a line: Inhibition of VEGFR2 internalization in HMEC1 cells assessed as total VEGFR2 level at 15 uM after 24 hrs by flow cytometry (reference value: 100%). Format: cell-based. Also on record: scale not given: the % may be the effect or the level left.
Test [29] has the same target. The test is described as follows: Inhibition of VEGFR2 internalization in HMEC1 cells at 15 uM after 24 hrs by immunofluorescence assay. Format: cell-based.
For test [30] the target is unchanged. The experiment in a line: Inhibition of VEGFR2 internalization in HMEC1 cells assessed as membrane VEGFR2 level at 15 uM after 24 hrs by flow cytometry (reference value: 100%). Format: cell-based. Set-up: scale not given: the % may be the effect or the level left.
For test [31] the target is unchanged. The test is described as follows: Inhibition of VEGFR2 internalization in human A549 cells at 44 uM after 24 hrs by immunofluorescence assay. The format is cell-based.
Test [32] has as its system A549. The experiment in a line: Cell cycle arrest in human A549 cells assessed as accumulation at S phase at 22 uM after 24 hrs by propidium iodide staining based flow cytometry (reference value: 28 +/- 0.6%). Format: functional.
The subject of test [33] is A549. The experiment in a line: Cell cycle arrest in human A549 cells assessed as accumulation at G2/M phase at 22 uM after 24 hrs by propidium iodide staining based flow cytometry (reference value: 10 +/- 0.8%). The format is functional.
The test system of test [34] is A549. The experiment in a line: Cell cycle arrest in human A549 cells assessed as accumulation at G0/G1 phase at 22 uM after 24 hrs by propidium iodide staining based flow cytometry (reference value: 60 +/- 1%). Format: functional.
Test [35] concerns A549. The experiment in a line: Cell cycle arrest in human A549 cells assessed as accumulation at subG0 phase at 22 uM after 24 hrs by propidium iodide staining based flow cytometry (reference value: 2 +/- 0.8%). Format: functional.
Test [36] addresses Vascular endothelial growth factor receptor 2 (Homo sapiens) (UniProt P35968). The test is described as follows: Inhibition of VEGFR2 internalization in HMEC1 cells assessed as total VEGFR2 level at 0.6 uM after 24 hrs by flow cytometry (reference value: 100%). The format is cell-based. Also on record: scale not given: the % may be the effect or the level left.
For test [37] the target is unchanged. The experiment in a line: Inhibition of VEGFR2 internalization in HMEC1 cells assessed as membrane VEGFR2 level at 0.6 uM after 24 hrs by flow cytometry (reference value: 100%). The format is cell-based. Also on record: scale not given: the % may be the effect or the level left.
Test [38] has the same target. The test is described as follows: Inhibition of VEGFR2 internalization in HMEC1 cells at 0.6 uM after 24 hrs by immunofluorescence assay. The format is cell-based.

Calls of active or inactive are those of the source. The calls are words filed in the database; no cut-off is given here.

For orientation: IC50 means the concentration needed to halve the response being measured.

Sequence of Vascular endothelial growth factor receptor 2 (Homo sapiens) (P35968 whole entry): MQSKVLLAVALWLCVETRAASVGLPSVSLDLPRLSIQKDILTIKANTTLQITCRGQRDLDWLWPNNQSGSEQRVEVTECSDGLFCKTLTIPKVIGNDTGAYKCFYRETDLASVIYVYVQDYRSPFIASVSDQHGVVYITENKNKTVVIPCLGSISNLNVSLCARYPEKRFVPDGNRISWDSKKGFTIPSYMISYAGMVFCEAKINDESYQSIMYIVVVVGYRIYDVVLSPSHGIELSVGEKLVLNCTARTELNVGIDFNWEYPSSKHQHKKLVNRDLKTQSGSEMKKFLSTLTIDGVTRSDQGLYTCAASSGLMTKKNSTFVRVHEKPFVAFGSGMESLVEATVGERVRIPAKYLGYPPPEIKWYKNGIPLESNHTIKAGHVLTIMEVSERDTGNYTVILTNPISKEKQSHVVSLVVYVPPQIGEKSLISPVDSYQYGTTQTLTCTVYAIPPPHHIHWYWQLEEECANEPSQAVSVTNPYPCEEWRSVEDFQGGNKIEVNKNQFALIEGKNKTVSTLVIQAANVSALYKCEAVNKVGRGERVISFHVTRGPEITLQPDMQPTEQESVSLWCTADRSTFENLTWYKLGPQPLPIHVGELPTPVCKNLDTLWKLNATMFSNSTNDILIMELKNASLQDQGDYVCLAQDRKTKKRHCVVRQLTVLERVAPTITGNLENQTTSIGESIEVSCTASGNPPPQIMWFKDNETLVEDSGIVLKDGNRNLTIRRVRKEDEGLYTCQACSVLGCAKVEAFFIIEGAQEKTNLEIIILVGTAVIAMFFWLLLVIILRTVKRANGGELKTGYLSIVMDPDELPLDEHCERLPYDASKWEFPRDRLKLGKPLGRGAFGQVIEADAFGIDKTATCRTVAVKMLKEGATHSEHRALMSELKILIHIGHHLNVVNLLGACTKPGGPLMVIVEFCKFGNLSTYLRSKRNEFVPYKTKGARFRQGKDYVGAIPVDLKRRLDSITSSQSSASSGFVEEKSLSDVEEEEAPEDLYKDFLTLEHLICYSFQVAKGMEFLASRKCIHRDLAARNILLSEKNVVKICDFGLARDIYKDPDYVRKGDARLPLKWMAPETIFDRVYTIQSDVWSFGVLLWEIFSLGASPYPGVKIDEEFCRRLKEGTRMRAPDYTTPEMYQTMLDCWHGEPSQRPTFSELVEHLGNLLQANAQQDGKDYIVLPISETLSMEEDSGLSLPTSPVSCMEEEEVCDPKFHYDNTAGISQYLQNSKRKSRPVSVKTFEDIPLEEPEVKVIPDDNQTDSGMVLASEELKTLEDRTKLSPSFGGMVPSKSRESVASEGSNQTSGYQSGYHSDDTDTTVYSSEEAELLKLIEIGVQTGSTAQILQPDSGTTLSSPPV

Consider `COc1ccc(/C=C\c2cc(OC)c(OC)c(OC)c2)cc1NC(=O)Nc1cccc(Br)c1`, for which, on Tubulin (Homo sapiens) [1], the outcome was Active.
Turning to `COc1ccc(/C=C\c2cc(OC)c(OC)c(OC)c2)cc1NC(=O)Nc1ccccc1Cl`, the inhibition result in test [2] and in [4] was “Active” in each case. Besides, the Activity in test [3] worked out at 46%; in [5], 43%.
Turning to `COc1ccc(/C=C\c2cc(OC)c(OC)c(OC)c2)cc1NC(=O)Nc1ccc(C)c(C)c1`, the inhibition entry in test [6] and in [7] was “Active” each time. The outcome at Tubulin (Homo sapiens) [8] was Active. In addition, the Activity in [9] was 148%; in test [10], 61%.
Turning to `COc1ccc(/C=C\c2cc(OC)c(OC)c(OC)c2)cc1NC(=O)Nc1cccc(C)c1`, the inhibition entry in test [11] and in test [13] was “Active” each time. In addition, the results for the Activity in test [12] and in [15] were 87% and 71%, respectively. At Tubulin (Homo sapiens) [14], the result was Active.
Consider `COc1ccc(/C=C\c2cc(OC)c(OC)c(OC)c2)cc1NC(=O)Nc1cccc(Cl)c1C`, for which the result on Tubulin (Homo sapiens) [1] was Active. Further, the Activity in test [16] is 97%; in [17], 71%.
As to `CNC(=O)c1cc(Oc2ccc(NC(=O)Nc3ccc(Cl)c(C(F)(F)F)c3)cc2)ccn1` [SORAFENIB], the values for the half-maximal inhibitory concentration (IC50) in the test with HL-60 and in the test on HMEC-1 were 5 µM and 34 µM, respectively. Also, the Activity is on record as 38% in the test on A549 [18] and 30% with A549 [19].
`COc1ccc(/C=C\c2cc(OC)c(OC)c(OC)c2)cc1N`: the Activity in the test with A549 [20] is recorded as 24%; with A549 [21] it was 14%; in the test on A549 [22] it was 41%; with A549 [23], 21%; in the test with A549 [18], 52%; with A549 [19], 32%.
On to `COc1ccc(/C=C\c2cc(OC)c(OC)c(OC)c2)cc1NC(=O)Nc1cc(C)cc(C)c1`, for which the figures for the Activity in test [24] and in [27] were 15% and 62%, respectively. The inhibition entry in test [25] and in test [26] was “Active” each time.
Regarding `COc1ccc(/C=C\c2cc(OC)c(OC)c(OC)c2)cc1NC(=O)Nc1ccc(Cl)c(C)c1`, the Activity in test [28] turned out to be 100%; in [30] it was 80%. The inhibition result in test [29] and in test [31] was “Active” in each case.
As to `CCN(CC)CCNC(=O)c1c(C)[nH]c(/C=C2\C(=O)Nc3ccc(F)cc32)c1C` [SUNITINIB], the Activity in the test on A549 [32] amounted to 35%; in the test on A549 [33], 16%; in the test with A549 [18], 45%; in the test on A549 [34], 47%; with A549 [35], 2.4%; in the test on A549 [19], 38%. Also, the 50% inhibitory concentration (IC50) with HL-60 and in the test with HMEC-1 was 7 µM each time.
As for `COc1ccc(/C=C\c2cc(OC)c(OC)c(OC)c2)cc1NC(=O)Nc1ccccc1Br`, the Activity worked out at 80% in [36] and 48% in [37]. Moreover, the inhibition entry in test [2] and in [38] was “Active” throughout. Moreover, at Tubulin (Homo sapiens) [1], the outcome was Active.

The record behind these values is ChEMBL document CHEMBL4382260, “Synthesis and biological evaluation as antiangiogenic agents of ureas derived from 3'-aminocombretastatin A-4” (Eur J Med Chem, 2019).
